Source: ChEMBL document CHEMBL4819135, “Design, synthesis and anti-HIV evaluation of novel 5-substituted diarylpyrimidine derivatives as potent HIV-1 NNRTIs” (Bioorg Med Chem, 2021)

How the values were obtained:
[1] = tested on: Human immunodeficiency virus 1; assay: Antiviral activity against HIV-1 IIIB harboring RT Y188L mutant infected in human MT4 cells assessed as protection against virus-induced cytotoxicity incubated for 5 days by MTT assay; format: functional, organism-based; details: Human immunodeficiency virus 1, IIIB, MT4, 120 h
[2] = Antiviral activity against HIV-2 ROD infected in human MT4 cells assessed as protection against virus-induced cytotoxicity incubated for 5 days by MTT assay; format: functional, cell-based; details: HIV-2, ISOLATE ROD, MT4, 120 h
[3] = tested on: Human immunodeficiency virus 1; assay: Antiviral activity against HIV-1 IIIB harboring RT K103N mutant infected in human MT4 cells assessed as protection against virus-induced cytotoxicity incubated for 5 days by MTT assay; format: functional, organism-based; details: Human immunodeficiency virus 1, IIIB, MT4, 120 h
[4] = tested on: Human immunodeficiency virus 1; assay: Antiviral activity against HIV-1 RES056 infected in human MT4 cells assessed as protection against virus-induced cytotoxicity incubated for 5 days by MTT assay; format: functional, organism-based; details: Human immunodeficiency virus 1, RES056, MT4, 120 h
[5] = tested on: Human immunodeficiency virus 1; assay: Antiviral activity against HIV-1 IIIB harboring RT E138K mutant infected in human MT4 cells assessed as protection against virus-induced cytotoxicity incubated for 5 days by MTT assay; format: functional, organism-based; details: Human immunodeficiency virus 1, IIIB, MT4, 120 h
[6] = Cytotoxicity against human MT4 cells assessed as reduction in cell viability after 5 days by MTT assay; format: cell-based; details: time 5 day
[7] = tested on: Human immunodeficiency virus 1; assay: Antiviral activity against HIV-1 IIIB harboring RT Y181C mutant infected in human MT4 cells assessed as protection against virus-induced cytotoxicity incubated for 5 days by MTT assay; format: functional, organism-based; details: Human immunodeficiency virus 1, IIIB, MT4, 120 h
[8] = tested on: Human immunodeficiency virus 1; assay: Antiviral activity against HIV-1 IIIB harboring RT F227L/V106A mutant infected in human MT4 cells assessed as protection against virus-induced cytotoxicity incubated for 5 days by MTT assay; format: functional, organism-based; details: Human immunodeficiency virus 1, IIIB, MT4, 120 h
[9] = tested on: Human immunodeficiency virus 1; assay: Antiviral activity against HIV-1 IIIB harboring RT L100I mutant infected in human MT4 cells assessed as protection against virus-induced cytotoxicity incubated for 5 days by MTT assay; format: functional, organism-based; details: Human immunodeficiency virus 1, IIIB, MT4, 120 h
[10] = tested on: Human immunodeficiency virus 1; assay: Antiviral activity against HIV-1 IIIB infected in human MT4 cells assessed as protection against virus-induced cytotoxicity after 5 days by MTT assay; format: functional, organism-based; details: Human immunodeficiency virus 1, IIIB, MT4, 120 h
[11] = tested on: Human immunodeficiency virus 1; assay: Antiviral activity against HIV-1 IIIB; format: functional, organism-based; details: Human immunodeficiency virus 1, IIIB
[12] = tested on: Human immunodeficiency virus 1; assay: Potency index, ratio of Etravirine EC50 to test compound EC50 for antiviral activity against HIV-1 IIIB infected in human MT4 cells by MTT assay; format: functional
[13] = target: Human immunodeficiency virus type 1 reverse transcriptase (Human immunodeficiency virus 1, UniProt Q72547); assay: Inhibition of wild type HIV-1 reverse transcriptase assessed as reduction in biotin-dUTP incorporation in presence of template-primer incubated for 60 mins followed by transferring to streptavidin-coated plate and further incubation for 60 mins by ELISA
[14] = tested on: Human immunodeficiency virus 1; assay: Potency index, ratio of Etravirine EC50 to test compound EC50 for antiviral activity against HIV-1 IIIB harboring RT E138K mutant infected in human MT4 cells by MTT assay; format: functional

Structure (SMILES) | EC50 [1] [nM] | EC50 [2] [nM] | EC50 [3] [nM] | EC50 [4] [nM] | EC50 [5] [nM] | CC50 at 120 h [6] [nM] | EC50 [7] [nM] | EC50 [8] [nM] | EC50 [9] [nM] | EC50 [10] [nM] | EC50 [11] [nM] | Ratio EC50 [12] | IC50 [13] [nM] | Ratio EC50 [14]
Cc1cc(C#N)cc(C)c1Oc1nc(Nc2ccc(C#N)cc2)ncc1-c1ccc(Cl)cc1 | 567 | > 72600 | 19.5 | 5120 | 72.6 | 72600 | 250 | 902 | 216 | 14.4 | – | – | – | –
COc1ccc(-c2cnc(Nc3ccc(C#N)cc3)nc2Oc2c(C)cc(C#N)cc2C)cc1 | 143 | > 279000 | 14.6 | 3770 | 38.4 | > 279000 | 186 | 278 | 164 | 8 | – | – | – | –
Cc1cc(C)cc(-c2cnc(Nc3ccc(C#N)cc3)nc2Oc2c(C)cc(C#N)cc2C)c1 | 2230 | > 38800 | 135 | > 38800 | 319 | 39000 | 833 | 1110 | 421 | 102 | – | – | – | –
Cc1cc(C#N)cc(C)c1Oc1nc(Nc2ccc(C#N)cc2)ncc1-c1ccoc1 | 22.6 | > 4980 | 4.4 | 395 | 9.3 | 4980 | 17.9 | 32.4 | 19.1 | 3.3 | – | – | – | –
Cc1cc(C#N)cc(C)c1Oc1nc(Nc2ccc(C#N)cc2)ncc1-c1ccc2ccccc2c1 | 849 | > 8460 | 35.7 | > 8460 | 76.9 | 8460 | 356 | 1200 | 195 | 16.8 | – | – | – | –
Cc1cc(C#N)cc(C)c1Oc1nc(Nc2ccc(C#N)cc2)ncc1-c1cncnc1 | 73.4 | > 298000 | 5.3 | 316 | 11.8 | > 298000 | 32.4 | 325 | 38.3 | 4.6 | – | – | – | –
Cc1ccc(-c2cnc(Nc3ccc(C#N)cc3)nc2Oc2c(C)cc(C#N)cc2C)cc1 | 267 | > 26100 | 20.3 | > 10600 | 57.2 | 26100 | 347 | 707 | 138 | 11.7 | – | – | – | –
Cc1cc(C#N)cc(C)c1Oc1nc(Nc2ccc(C#N)cc2)nc2ccsc12 | – | – | – | – | – | – | – | – | – | – | 1.6 | – | – | –
Cc1cc(C#N)cc(C)c1Oc1nc(Nc2ccc(C#N)cc2)ncc1-c1ccc(N)cc1 | 33.5 | > 310 | 3.8 | > 306 | 10.5 | 310 | 41.6 | 44.1 | 20.5 | 3.5 | – | – | – | –
Cc1cc(C#N)cc(C)c1Oc1nc(Nc2ccc(C#N)cc2)ncc1-c1ccco1 | 37.4 | > 307000 | 4.7 | 1010 | 9.3 | > 307000 | 30.4 | 75.3 | 24.8 | 3.6 | – | – | – | –
Cc1cc(C#N)cc(C)c1Oc1nc(Nc2ccc(C#N)cc2)ncc1-c1ccsc1 | 41.8 | > 3920 | 4.3 | 1440 | 10.7 | 3920 | 57.1 | 64.8 | 53.4 | 4.1 | – | – | – | –
Cc1cc(C#N)cc(C)c1Oc1nc(Nc2ccc(C#N)cc2)ncc1-c1ccc(C(F)(F)F)cc1 | 598 | > 35000 | 25.4 | 5460 | 60.3 | 35000 | 235 | 724 | 246 | 11.5 | – | – | – | –
Cc1cc(C#N)cc(C)c1Oc1nc(Nc2ccc(C#N)cc2)ncc1-c1ccncc1 | 30.9 | > 28000 | 4.2 | 718 | 5.9 | 28000 | 24.1 | 41.3 | 28.3 | 2.5 | – | 1.2 | 570 | 1.4
Cc1cc(C#N)cc(C)c1Oc1nc(Nc2ccc(C#N)cc2)ncc1-c1cccs1 | 57.5 | > 6430 | 4.8 | 1150 | 12.9 | 6430 | 36 | 269 | 21.1 | 4.9 | – | – | – | –
Cc1cc(C#N)cc(C)c1Oc1nc(Nc2ccc(C#N)cc2)ncc1-c1cccnc1 | 20 | > 13500 | 2.7 | 300 | 7.1 | 13500 | 23.5 | 112 | 24.2 | 2.5 | – | 1.2 | – | 1.4
Cc1cc(C#N)cc(C)c1Oc1nc(Nc2ccc(C#N)cc2)ncc1-c1cccc2ccccc12 | 10600 | > 267000 | 1820 | 218000 | 5450 | > 267000 | 21700 | 38400 | 2670 | 934 | – | – | – | –
Cc1cc(C#N)cc(C)c1Oc1nc(Nc2ccc(C#N)cc2)ncc1-c1ccc(F)cc1 | 102 | > 42700 | 10.1 | 5000 | 18.5 | 42700 | 113 | 526 | 159 | 6.2 | – | – | – | –
Cc1cc(C#N)cc(C)c1Oc1nc(Nc2ccc(C#N)cc2)ncc1-c1ccccc1 | 222 | > 31800 | 63.5 | 9130 | 122 | 31800 | 576 | 881 | 446 | 24.4 | – | – | – | –
Cc1cc(C#N)cc(C)c1Oc1nc(Nc2ccc(C#N)cc2)ncc1-c1ccc(-c2ccccc2)cc1 | 1320 | > 253000 | 29.5 | 8520 | 112 | > 253000 | 361 | 1220 | 195 | 20.5 | – | – | – | –
O=C1Nc2ccc(Cl)cc2[C@@](C#CC2CC2)(C(F)(F)F)O1 [EFAVIRENZ] | – | – | – | 273 | – | > 6340 | – | – | 30.8 | – | – | – | – | –
Cc1cc(C#N)cc(C)c1Oc1nc(Nc2ccc(C#N)cc2)nc(N)c1Br [ETRAVIRINE] | – | – | – | – | – | > 4590 | – | – | – | – | – | – | – | –
Cc1ccnc2c1NC(=O)c1cccnc1N2C1CC1 [NEVIRAPINE] | 5350 | – | 2320 | 10700 | 115 | > 15000 | 3670 | 4310 | 589 | 133 | – | – | – | –
Cc1cn([C@H]2C[C@H](N=[N+]=[N-])[C@@H](CO)O2)c(=O)[nH]c1=O [ZIDOVUDINE] | – | – | – | 20.1 | – | > 7480 | – | – | – | – | – | – | – | –
